Values belong to the molecule of their own block, whether it stands above or below them.
Key:
[1] = controlled release of drug from the formulation (dialysis bag in PBS sink, UV 272 nm); assay type: physicochemical
Description: (§1) The controlled release of the formulation was evaluated where 0.5 mL of the formulation was placed into a dialysis bag (10 kDa) and submerged in 50 mL sink of phosphate buffered saline (1×; pH 7.4). The samples were placed into a rotating incubator (1 Hz) at 37° C. At designated timepoints, 2 mL of saline was removed and analyzed using ultraviolet visible spectrophotometry (272 nm). The entire sink medium was replaced at each timepoint until drug no longer eluted out of the system.
as §1, with “The release of bupivacaine is shown in a formulation including MCT oil and glycerol monostearate as a structuring agent with and without the presence of an anion to increase hydrophobicity. […] The controlled” for “The controlled”, “buffered saline (lx; pH 7.4).” for “buffered saline (1×; pH 7.4).”

[2] = max solubility of bupivacaine in oil (37° C. overnight, centrifuge, UV 272 nm)
Description: The solubility of bupivacaine in a blend of MCT oil and castor oil was studied. […] The max solubility of the oil blends was determined by adding 300 mg of bupivacaine free base into 3 mL of an MCT: castor oil mixture. […] After rotating, samples were spun in a centrifuge at 2000×g for 5 minutes. Next, 30 uL of sample supernatant was taken and dissolved to 1470 uL of ethanol and analyzed using ultraviolet visible spectrophotometry (272 nm).

[3] = solubility of ropivacaine forms in lipophilic oils; assay type: physicochemical

release of bupivacaine with and without an anion ([1]; FIG. 13, MCT oil and glycerol monostearate, PBS pH 7.4, 37° C.): prolonged
Compound: CCCCC(CC)COC(=O)CC(C(=O)OCC(CC)CCCC)S(=O)(=O)O.CCCCN1CCCCC1C(=O)Nc1c(C)cccc1C (stereo not drawn) [bupivacaine with docusate, bupivacaine docusate]

drug release with specific blends of oil ([1]; MCT oil:castor oil blends): slows
Compound: CCCCN1CCCCC1C(=O)Nc1c(C)cccc1C (stereo not drawn) [bupivacaine]
drug solubility in castor oil versus MCT [2]: higher drug solubility in castor oil than MCT
solubility of bupivacaine (drug loading) in blends of MCT oil and castor oil ([2]; FIG. 11, 37° C. overnight): drug loading increases with specific blends of oil

solubility in lipophilic oils such as medium-chain triglycerides [3]: suitable solubility
Compound: CCCCC(CC)COC(=O)CC(C(=O)OCC(CC)CCCC)S(=O)(=O)O.CCCN1CCCCC1C(=O)Nc1c(C)cccc1C (stereo not drawn) [ropivacaine docusate]

solubility in lipophilic oils such as medium-chain triglycerides [3]: poor solubility
Compound: CCCN1CCCC[C@H]1C(=O)Nc1c(C)cccc1C [ropivacaine]

Reference: patent US11918572B2, “Pharmaceutical compositions for treating pain” (REBEL MEDICINE INC, priority 2022, dated 2024)
